What follows are compounds tested against T1, PDE5 enzyme (Homo sapiens, UniProt O76074) (assay: Method 1: Human Platelet PDE5 Enzyme Inhibition Scintillation Proximity Assay). Details: METHOD 1: PDE5 IC50, Table B, WO2004096810 examples.
T1 construct: The PDE5 enzyme isolated from human platelets; from tissue; host or cells: human platelets
Assay type: biochemical
From the text: Method 1: Human Platelet PDE5 Enzyme Inhibition Scintillation Proximity Assay
An in vitro assay can be used to evaluate the inhibition of PDE5 enzyme activity by a test compound.
The PDE5 enzyme for use in the assay can be obtained from human platelets by appropriate modification of the method of Thompson, W J et al.; Biochemistry 18(23), 5228-5237, 1979, as described by Ballard S A et al.; J. Urology 159(6), 2164-2171, 1998. The PDE5 enzyme isolated from human platelets can be used to catalyze the hydrolysis of [^3H]cGMP (Amersham Biosciences) to 5′ nucleotide [^3H]GMP. The [^3H]GMP binds to yttrium silicate SPA beads (Amersham Biosciences) and is detected by scintillation counting. More specifically, the effect of the test compound at different concentrations can be evaluated in the assay by contacting the compound with a fixed amount of PDE5 enzyme in the presence of substrate (cGMP or cAMP in a 3:1 ratio unlabelled to [^3H]-labeled). Scintillation counting can be used as described above to determine relative PDE5 enzyme activity. The inhibition of PDE5 enzyme activity is then calculated relative to total PDE5 enzyme activity of uninhibited controls.
PDE5 IC50 Assay: 96-well microtiter plate format
• Buffer A: 20 mM Tris-HCl, 5 mM MgCl2, pH 7.4 • Buffer B: 2 mg/ml BSA in Buffer A (enzyme buffer) • cGMP substrate: Final concentration of 500 nM in assay The amount of ^3H-labeled substrate added depends upon the specific activity of [^3H]cGMP, and the cGMP substrate is diluted with a 10 mM stock of cold cGMP in Buffer A for a final substrate concentration of 500 nM in the assay. • PDE enzyme: Prepared in Buffer B. The dilution factor is determined by enzyme activity. • SPA beads: 20 mg/ml suspension prepared in dH2O.
Stocks of standard and test compounds are prepared at 5 mM in 100% DMSO. The compound is serially diluted in a dilution plate using a 10-point ½ log dilution format. 2 μl of the compound dilution is added in duplicate to the wells of the assay plate. 2 μl of 100% DMSO are added to designated control wells. 25 μl of Buffer A are added to all wells. 25 μl of Buffer B are added to the negative control wells. 25 μl of enzyme are added to the remaining wells. 50 μl of substrate are added to each well. Plates are sealed and incubated for 60 minutes on a plate shaker at 30 C. 50 plof SPA beads are added to stop the reaction. The plates are again sealed and shaken for 15 minutes to allow the beads to bind the GMP product. The beads are allowed to settle for 30 minutes and then read on a NXT TopCount scintillation counter. Data are analyzed with a curve fitting application for plate-based screening. Percent inhibition in this assay is calculated as follows: Inhibition (%)=[(mean maximum−compound value/(mean maximum−mean minimum)]×100.
The IC50 value is determined from sigmoid dose-response curves of enzyme activity versus compound concentration.

Row | SMILES | IC50
1 | CCc1nn(CCOC)c2c(Nc3ccc(F)cn3)nc(NCCOC)nc12 [WO2004096810 Example 110] | 0.513 µM
2 | COCCn1nc(C)c2nc(N3C[C@@H](C)NC[C@@H]3C)nc(Nc3ccncn3)c21 [WO2004096810 Example 144] | 0.00534 µM
3 | CCOCCn1nc(C)c2nc(N(C)[C@@H]3CCN(C)C3)nc(Nc3cc(C)ccn3)c21 [WO2004096810 Example 156] | 0.0018 µM
4 | CCOCCn1nc(CC)c2nc(N3C[C@@H](C)NC[C@@H]3C)nc(Nc3ccncn3)c21 [WO2004096810 Example 150] | 0.00183 µM
5 | CCc1nn(CCOC)c2c(Nc3ccc(C)cn3)nc(NCCCO)nc12 [WO2004096810 Example 103] | 0.0766 µM
6 | CCOCCn1nc(COC)c2nc(N(C)C3CCN(C)CC3)nc(Nc3cc(C)ccn3)c21 [WO2004096810 Example 214] | 0.00037 µM
7 | CCCOCCn1nc(C)c2nc(N3CCN[C@H](C)C3)nc(Nc3ccncn3)c21 [WO2004096810 Example 23] | 0.00039 µM
8 | CCCc1nn(C)c2c(Nc3cccnn3)nc(N3CCNCC3)nc12 [WO2004096810 Example 88] | > 0.1 µM
9 | COCCCn1nc(C)c2nc(N(C)CCO)nc(Nc3cc(C)ccn3)c21 [WO2004096810 Example 92] | 0.0265 µM
10 | CCCc1nn(C)c2c(Nc3cc(C)ccn3)nc(NCc3ccc(OC)cc3)nc12 [WO2004096810 Example 71] | 0.152 µM
11 | COCCn1nc(C)c2nc(N3CC[C@H](OC)C3)nc(Nc3cc(C)ccn3)c21 [WO2004096810 Example 95] | 0.076 µM
12 | COCCn1nc(C(C)C)c2nc(N3CCN[C@H](C)C3)nc(Nc3ccc(C)cn3)c21 [WO2004096810 Example 8] | 0.00695 µM
13 | COCCn1nc(C)c2nc(N3C[C@@H](C)NC[C@@H]3C)nc(Nc3cc(C)ccn3)c21 [WO2004096810 Example 142] | 0.0227 µM
14 | CCCc1nn(C)c2c(Nc3ccncn3)nc(N3CCN[C@H](C)C3)nc12 [WO2004096810 Example 91] | 0.0226 µM
15 | CCCc1nn(C)c2c(NC3CCCC3)nc(N3CCNCC3)nc12 [WO2004096810 Example 129] | 0.139 µM
16 | CCOCCn1nc(CC)c2nc(N3CCN[C@H](C)C3)nc(N(C)c3ccncn3)c21 [WO2004096810 Example 28] | 0.0479 µM
17 | CCOCCn1nc(C)c2nc(N3C[C@H](C)NC[C@H]3C)nc(Nc3ccc(C)cn3)c21 [WO2004096810 Example 137] | 0.00143 µM
18 | CCOCCn1nc(CC)c2nc(N3CCN[C@@H](C)C3)nc(Nc3ccncn3)c21 [WO2004096810 Example 16] | 0.00098 µM
19 | CCCc1nn(C)c2c(Nc3ccc(C)cn3)nc(N3CCN(C)CC3)nc12 [WO2004096810 Example 113] | 1.25 µM

Row | SMILES | IC50
20 | CCc1nn(CCOC)c2c(Nc3cc(C)ccn3)nc(NC[C@@H]3CCCN3)nc12 [WO2004096810 Example 98] | 0.231 µM
21 | CCOCCn1ncc2nc(N3CCN[C@H](C)C3)nc(Nc3ccncn3)c21 [WO2004096810 Example 21] | 0.00204 µM
22 | CCCOCCn1nc(C)c2nc(N3CCN[C@H](C)C3)nc(Nc3ccc(C)cn3)c21 [WO2004096810 Example 7] | 0.00603 µM
23 | CCCc1nn(C)c2c(Nc3cccc(C(=O)NC)n3)nc(N3CCNCC3)nc12 [WO2004096810 Example 128] | 1.39 µM
24 | CNc1nc(Nc2cc(C)ccn2)c2c(n1)c(C)nn2CCCOC [WO2004096810 Example 99] | 0.239 µM
25 | COCCCn1nc(C)c2nc(N3CCNCC3)nc(Nc3cc(C)n[nH]3)c21 [WO2004096810 Example 116] | 1.76 µM
26 | Cc1nn(C(C)C)c2c(Nc3ccncn3)nc(N3CCN[C@H](C)C3)nc12 [WO2004096810 Example 24] | 0.0377 µM
27 | CCCc1nn(C)c2c(Nc3ccc(C)cn3)nc(N(C)C3CNC3)nc12 [WO2004096810 Example 38] | > 10 µM
28 | Cc1ccc(Nc2nc(N3CCN[C@H](C)C3)nc3c(C)nn(C(C)C)c23)nc1 [WO2004096810 Example 9] | 0.508 µM
29 | CCCc1nn(C)c2c(NC3CCCCC3)nc(N3CCNCC3)nc12 [WO2004096810 Example 124] | 0.0782 µM
30 | CCCc1nn(C)c2c(Nc3cc(C)ccn3)nc(N3CCN[C@H](C)C3)nc12 [WO2004096810 Example 40] | 0.334 µM
31 | CCCc1nn(C)c2c(Nc3ccc(C)cn3)nc(NC3CNC3)nc12 [WO2004096810 Example 37] | > 10 µM
32 | CCOCCn1nc(CC)c2nc(N3C[C@H](C)NC[C@H]3C)nc(Nc3cc(C)ccn3)c21 [WO2004096810 Example 139] | 0.00055 µM
33 | CCOCCn1nc(CC)c2nc(N(C)[C@H]3CCN(C)C3)nc(Nc3cc(C)ccn3)c21 [WO2004096810 Example 162] | 0.00024 µM
34 | CCCc1nn(C)c2c(Nc3ccncn3)nc(N3CCN[C@@H](C)C3)nc12 [WO2004096810 Example 81] | 0.118 µM
35 | CCOCCn1nc(CC)c2nc(N3C[C@H](C)NC[C@H]3C)nc(Nc3ccc(C)cn3)c21 [WO2004096810 Example 140] | 0.00195 µM
36 | CCc1nn(CCOC)c2c(Nc3cc(C)n[nH]3)nc(NCCn3cccn3)nc12 [WO2004096810 Example 115] | 0.22 µM
37 | CCOCCn1nc(C)c2nc(N3CCN[C@H](C(C)C)C3)nc(Nc3ccncn3)c21 [WO2004096810 Example 13] | 0.0191 µM
38 | CCc1nn(CCOC)c2c(Nc3ccc(C)cn3)nc(N3CCOCC3)nc12 [WO2004096810 Example 108] | 0.778 µM

The next lines start with the values.

Row | IC50 | SMILES
39 | 0.00254 µM | CCOCCn1nc(C)c2nc(N3CC4C[C@@H]3CN4)nc(Nc3cc(C)ccn3)c21 [WO2004096810 Example 244]
40 | 0.00063 µM | CCOCCn1nc(C)c2nc(N(C)CC)nc(Nc3ccc(=O)n(C)c3)c21 [WO2004096810 Example 203]
41 | > 0.1 µM | CCOCCn1nc(C)c2nc(N3C[C@@H]4C[C@H]3CN4)nc(Nc3ccc(C)cn3)c21 [WO2004096810 Example 240]
42 | 0.00062 µM | CCOCCn1nc(COC)c2nc(N3CC4CCC(C3)N4)nc(Nc3cc(C)ccn3)c21 [WO2004096810 Example 242]
43 | 0.274 µM | Cc1ccnc(Nc2nc(N3CCNCC3)nc3c(C)n(Cc4ccccn4)nc23)c1 [WO2004096810 Example 176]
44 | 0.00313 µM | CCOCCn1nc(C)c2nc(N3CCN[C@H](C)C3)nc(Nc3cnc(C)c(C)c3)c21 [WO2004096810 Example 199]
45 | 0.535 µM | Cc1ccnc(Nc2nc(N3CCNCC3)nc3c(C)n(CC4CCC4)nc23)c1 [WO2004096810 Example 177]
46 | 0.0487 µM | CCOCCn1nc(C)c2nc(N3C[C@@H]4C[C@H]3CN4)nc(Nc3ccncn3)c21 [WO2004096810 Example 241]
47 | 0.00251 µM | CCOCCn1nc(C)c2nc(N3C[C@@H]4C[C@H]3CN4)nc(Nc3cc(C)ccn3)c21 [WO2004096810 Example 236]
48 | 0.00385 µM | CCOCCn1nc(C)c2nc(N3C[C@@H]4C[C@H]3CN4)nc(Nc3cnc(C)c(C)c3)c21 [WO2004096810 Example 233]
49 | 0.00101 µM | CCOCCn1nc(CC)c2nc(N(C)[C@H]3CCN(C)C3)nc(Nc3ccncn3)c21 [WO2004096810 Example 193]
50 | 0.00133 µM | CCOCCn1nc(COC)c2nc(N(C)CC)nc(Nc3ccncn3)c21 [WO2004096810 Example 225]
51 | 0.0115 µM | Cc1ccnc(Nc2nc(N3CCNCC3)nc3c(C)nn(CC4CCCO4)c23)c1 (stereo not shown) [WO2004096810 Example 166]
52 | 0.0162 µM | CCc1nn(CCOC)c2c(Nc3cc(C)ccn3)nc(NC)nc12 [compound 1]
53 | 0.0105 µM | COCCn1nc(C)c2nc(N3CCNCC3)nc(Nc3cc(C)ccn3)c21 [WO2004096810 Example 165]
54 | 0.00546 µM | CCOCCn1nc(C)c2nc(N(C)CCOC)nc(Nc3ccc(=O)n(C)c3)c21 [WO2004096810 Example 202]
55 | 0.0259 µM | CCOCCn1nc(C)c2nc(N3CCN[C@H](C)C3)nc(Nc3ccc(=O)n(C)c3)c21 [WO2004096810 Example 201]
56 | 0.00047 µM | CCOCCn1nc(COCC)c2nc(N(C)C)nc(Nc3cc(C)ccn3)c21 [WO2004096810 Example 188]
57 | 0.00879 µM | CCOCCn1nc(C)c2nc(N3C[C@@H]4C[C@H]3CN4)nc(Nc3cc(C)cc(C)n3)c21 [WO2004096810 Example 234]
58 | 0.00306 µM | CCOCCn1nc(CC)c2nc(N(C)[C@H]3CCN(C)C3)nc(Nc3ccc(C)cn3)c21 [WO2004096810 Example 192]

— patent US8518956B2, “1-(1-(2-ethoxyethyl)-3-ethyl-7-(4-methylpyridin-2-ylamino)-1H-pyrazolo[4,3-d]pyrimidin-5-yl) piperidine-4-carboxylic acid and salts thereof” (priority 2005, dated 2013)
